{
  "source": "patent US9849170B2",
  "about": "“Microneedle coating composition and microneedle device” (priority 2013, dated 2017)",
  "experiment": "Blending effect of lysine hydrochloride on stability (L9 orthogonal table)",
  "assay_type": "physicochemical",
  "details": "2.5% or 5.0% lysine hydrochloride blended; 50° C., 2 weeks; least-squares analysis, FIG. 4",
  "experimental": "A Japanese encephalitis vaccine antigen application solution comprising 70% by mass of a mixture of arginine and an acid, where the blending ratio of each component (unit: % by mass) and the molar ratio of arginine and the acid are shown in Table 7, was applied onto microneedles, and the blending effect of the lysine hydrochloride was evaluated using an L9 orthogonal table. In Table 7, the numerical values in parentheses for each component denote the blending ratios (unit: % by mass) after removal of the volatile component.\nA PBS solution of a Japanese encephalitis vaccine antigen was used as a bulk drug, this bulk drug was concentrated by ultrafiltration, and a predetermined amount of an additive was added to the concentrate, followed by mixing to obtain an application solution for microneedles. […] After drying, the microneedles were sealed in MoistCatch (trade name, Kyodo Printing Co., Ltd.) together with PharmaKeep (trade name, Mitsubishi Gas Chemical Company, Inc.), and the stability under each temperature condition was evaluated. […] For the specific activity level of each sample preserved at 50° C. for 2 weeks, the degree of influence by blending of lysine hydrochloride on the specific activity was analyzed by a least-squares method. […]",
  "data": [
    {"smiles": "Cl.NCCCC[C@H](N)C(=O)O", "note": "[lysine hydrochloride]", "values": [
      {"measurement": "degree of influence on the specific activity", "value": "high"}
    ]}
  ]
}
